Measured values from PMC11279411, “Structure-Based Identification of Novel Histone Deacetylase 4 (HDAC4) Inhibitors” (Pharmaceuticals, 2024).
Read-outs that look alike come from different tables or passages of the source.

Columns and labels:
HDAC3 = HDAC3 (Homo sapiens, UniProt O15379); assay: HDAC3 fluorogenic activity assay (BPS Bioscience kit); details: for decrease of HDAC3 activity / relative percent activity of HDAC3 (activity retained): 100 μM compound; for relative percent activity of HDAC3 (activity retained): compared to absence of inhibitor
Sequence of HDAC3 (O15379 whole entry): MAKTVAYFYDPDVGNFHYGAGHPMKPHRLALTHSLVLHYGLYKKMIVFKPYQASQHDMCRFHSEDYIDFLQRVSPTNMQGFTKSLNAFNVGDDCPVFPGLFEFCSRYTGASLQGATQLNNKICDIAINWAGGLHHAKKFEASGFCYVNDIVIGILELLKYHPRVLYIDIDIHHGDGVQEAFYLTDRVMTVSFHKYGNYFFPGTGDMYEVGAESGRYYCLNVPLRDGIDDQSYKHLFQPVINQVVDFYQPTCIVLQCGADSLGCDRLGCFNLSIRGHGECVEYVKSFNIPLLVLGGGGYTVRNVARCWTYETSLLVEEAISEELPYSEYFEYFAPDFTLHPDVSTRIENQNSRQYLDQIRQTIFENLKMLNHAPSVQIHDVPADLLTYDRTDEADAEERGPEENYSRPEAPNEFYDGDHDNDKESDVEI
Sequence of HDAC3 (Q9Y618 395-489 partner limits assumed): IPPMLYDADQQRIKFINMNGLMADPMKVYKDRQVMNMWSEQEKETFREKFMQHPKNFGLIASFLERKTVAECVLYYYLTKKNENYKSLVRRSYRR
Experimental: (§2) HDAC3 and HDAC4 activity assays were performed using fluorogenic assay kits obtained from BPS Bioscience (San Diego, CA, USA) by following the protocol that is supplied by the manufacturer. Briefly, purified enzyme (40 pg/μL HDAC3 or 1.2 pg/μL HDAC4) in a total of 50 μL buffer containing 0.1% BSA was incubated with substrate (20 μM for HDAC3 and 2 μM for HDAC4) at 37 °C for 30 min in a 96-well plate. A fluorescence developer (50 μL) was added and the plate was incubated at room temperature for a further 15 min. The activity of the enzymes in the absence and presence of compounds was measured on a BioTek Cytation 5 plate reader, exciting the samples at 350 nm and measuring emission at 450 nm. Compounds were prepared as 10 mM stocks in DMSO, diluted to 1 mM in 20 mM NaHEPES, 150 mM NaCl, pH 7.4 buffer, and were screened at 100 μM in the assays at least in duplicate. A positive control with 1% DMSO added in lieu of an inhibitor and a negative control without enzyme were also prepared in each assay plate. The negative control was subtracted from all fluorescence values, while the positive control was used as the reference for 100% activity of the enzyme.

[1] = system: transitional urothelial carcinoma SW780 cell line; assay: MTT cell viability assay, SW780; details: Homo sapiens; for IC50 / viability at 100 µM: SW780, 48 h; for IC50: read-out: IC50 (cell viability); for viability at 100 µM: read-out: Relative cell viability
Experimental: (§1) Cell viability assays were determined using Methyl Thiazolyl Tetrazolium (MTT) assay (Travigen, Gaithersburg, MD, USA). A total of 5 × 10^3 SW780 (human transitional urinary bladder cancer cell line) or 1 × 10^4 (human triple-negative breast cancer cell line MDA-MB231, American Type Culture Collection [ATCC], Rockville, MD, USA) in 100 µL of culture media were seeded to each well of 96-well culture plates. These cell lines were chosen based on previous work. The MDA-MB231 and SW780 cell lines were cultured in Dulbecco’s modified Eagle’s medium (DMEM) with 10% or 5% heat-inactivated fetal bovine serum, respectively, 100 U/mL penicillin, and 100 µg/mL streptomycin. Cultures were maintained in 5% CO2 at 37 °C and subcultured every 2–3 days. At 24 h after seeding, cells were treated with various concentrations of potential HDAC inhibiting compounds for 48 h (100 µM for initial screening, […], 1, 10, 100, 250, and 500 µM for the dose–response experiment). Subsequently, 10 µL of MTT reagent was added to each well and incubated for 4 h, followed by the addition of 100 µL of detergent reagent. The plate was incubated overnight. The reduced MTT reagent in cultures was measured at 570 nm by using an ELISA reader (Bio-Tek, Winooski, VT, USA). The IC50 for each compound was calculated from fitted nonlinear regression dose–response curves.

[2] = system: human breast carcinoma MDA-MB231 cell line; assay: MTT cell viability assay, MDA-MB231; details: for IC50 / viability at 100 µM: MDA-MB-231, 48 h; for IC50: read-out: IC50 (cell viability); for viability at 100 µM: read-out: Relative cell viability
Experimental: as §1

HDAC4 = HDAC4 (Homo sapiens, UniProt P56524); assay: HDAC4 fluorogenic activity assay (BPS Bioscience kit); details: for relative percent activity of HDAC4 (activity retained): 100 μM compound, compared to absence of inhibitor; for IC50 fold lower for HDAC4 than HDAC3: selectivity HDAC4 over HDAC3 from IC50 values
Sequence of HDAC4 (P56524 whole entry): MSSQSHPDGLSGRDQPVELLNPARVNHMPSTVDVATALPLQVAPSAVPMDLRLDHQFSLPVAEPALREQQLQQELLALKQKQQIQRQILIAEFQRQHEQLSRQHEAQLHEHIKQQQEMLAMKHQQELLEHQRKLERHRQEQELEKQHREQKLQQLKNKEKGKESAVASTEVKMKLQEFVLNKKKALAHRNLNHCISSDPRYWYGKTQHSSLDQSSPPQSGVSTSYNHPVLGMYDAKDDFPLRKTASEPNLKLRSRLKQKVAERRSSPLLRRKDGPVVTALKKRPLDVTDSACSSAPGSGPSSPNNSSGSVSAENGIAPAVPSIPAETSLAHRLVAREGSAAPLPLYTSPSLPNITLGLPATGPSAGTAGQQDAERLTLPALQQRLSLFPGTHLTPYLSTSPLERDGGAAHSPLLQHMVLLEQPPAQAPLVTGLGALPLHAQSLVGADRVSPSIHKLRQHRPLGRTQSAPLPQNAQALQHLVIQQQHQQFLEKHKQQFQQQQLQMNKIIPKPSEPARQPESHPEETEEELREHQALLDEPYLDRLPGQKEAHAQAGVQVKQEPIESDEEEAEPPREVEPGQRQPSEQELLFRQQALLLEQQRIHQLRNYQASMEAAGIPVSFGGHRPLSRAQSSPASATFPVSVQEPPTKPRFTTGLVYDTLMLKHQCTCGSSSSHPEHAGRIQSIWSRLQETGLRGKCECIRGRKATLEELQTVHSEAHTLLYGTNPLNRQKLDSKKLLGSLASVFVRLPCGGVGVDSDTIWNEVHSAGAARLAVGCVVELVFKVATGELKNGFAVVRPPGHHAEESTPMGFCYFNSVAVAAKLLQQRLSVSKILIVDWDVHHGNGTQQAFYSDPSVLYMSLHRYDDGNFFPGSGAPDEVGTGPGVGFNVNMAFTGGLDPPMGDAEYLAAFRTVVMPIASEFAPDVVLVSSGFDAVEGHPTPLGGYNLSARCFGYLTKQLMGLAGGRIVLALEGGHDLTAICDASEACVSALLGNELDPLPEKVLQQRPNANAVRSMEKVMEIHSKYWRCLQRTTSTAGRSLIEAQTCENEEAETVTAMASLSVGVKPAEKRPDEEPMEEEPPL
Experimental: as §2

[3] = read-out: IC50 (μM) for HDAC4, highest concentration 500 μM
[4] = read-out: IC50 (μM) for HDAC3, highest concentration 500 μM

Structure (SMILES) | IC50 (HDAC3) [µM] | IC50 [1] [µM] | IC50 ([2]; Homo sapiens) [µM] | viability at 100 µM ([2]; Homo sapiens) [%] | relative percent activity of HDAC4 (activity retained) (HDAC4) | IC50 (HDAC3; [4]) [µM] | other results
COc1cccc2c1cc([N+](=O)[O-])c1c(C(=O)O)cc3c(c12)OCO3 [Compound 11926] | > 500 | 223 ± 49 | 126 ± 10 | < 60 | – | – | viability at 100 µM [1]: < 50%; viability at 500 µM ([1]; SW780, read-out: cell viability): 45%; viability at 500 µM ([2]; Homo sapiens, MDA-MB-231, read-out: cell viability): 9%
NC(=S)NN=Cc1cc(-c2cccc(N)c2)ccn1 [Compound 195327] | > 500 | 89 ± 48 | 37 ± 17 | < 60 | unchanged | – | IC50 (μM) for HDAC4 (HDAC4; highest concentration 500 μM): did not inhibit; decrease of HDAC3 activity (HDAC3): 80%; IC50 (μM) for HDAC3 (HDAC3; highest concentration 500 μM): no inhibition; viability at 100 µM [1]: < 50%
O=C(Nc1ccc(C2=NCCN2)cc1)c1ccc(Cl)c(C(=O)Nc2ccc(C3=NCCN3)cc2)c1 [Compound 67436] | 9.2 ± 5.2 | 131 ± 26 | 138 ± 23 | < 60 | ≤ 40% | – | IC50 (HDAC4): 47 ± 28 µM; relative percent activity of HDAC3 (activity retained) (HDAC3): ≤ 40%; HDAC3 IC50 relative to that for HDAC4 (HDAC3; selectivity HDAC3 over HDAC4 from IC50 values): five times lower; viability at 100 µM [1]: < 50%
O=C(CN1CCOCC1)N1CCOCC1 [Compound 51936] | – | – | – | – | – | > 500 | IC50 (HDAC4; [3]): 550 ± 350 µM
CCOC(=O)C(=NO)C1=CSC2=NNC(C)(C)N12 [Compound 299968] | > 500 | 300 ± 17 | 113 ± 19 | < 60 | – | – | IC50 (HDAC4): 250 ± 170 µM; IC50 fold lower for HDAC4 than HDAC3 (HDAC4): at least 2 fold
CC12CCC(C(NC(=S)NN)C1=O)C2(C)C (centres unmarked) [Compound 36425] | – | – | – | – | – | > 500 | IC50 (HDAC4; [3]): 480 ± 260 µM
CCOC(=O)C1C(=O)C(=O)N(C(C)C)C1C(=O)OCC (centres unmarked) [Compound 55172] | – | – | – | – | – | > 500 | –
COc1ccc2c(c1)NP(=S)(Oc1ccccc1)N2 (centres unmarked) [Compound 88402] | 210 ± 60 | – | – | – | < 40% | – | IC50 (HDAC4): 100 ± 40 µM; IC50 fold lower for HDAC4 than HDAC3 (HDAC4): at least 2 fold; relative percent activity of HDAC3 (activity retained) (HDAC3): 75%; Relative cell viability ([2]; MDA-MB231, 100 µM compound, 48 h, untreated cells = 100%): did not show activity
CCOC(=O)C(=CNc1ccccc1Cl)C(=O)OCC [Compound 79887] | – | – | – | – | – | > 500 | –
CN(C)c1ncnc2c1ncn2-c1ccccc1 [Compound 34488] | – | – | – | – | unchanged | > 500 | decrease of HDAC3 activity (HDAC3): 50%
CCCn1cnc2c(Sc3c([N+](=O)[O-])ncn3C)nc(N)nc21 [Compound 44584] | > 500 | 213 ± 13 | 137 ± 18 | < 60 | unchanged | – | decrease of HDAC3 activity (HDAC3): 60%
COc1cc(C2NC(=O)C(C#N)=C(Nc3cccc(C)c3)S2)ccc1O (centres unmarked) [Compound 319435] | > 500 | – | – | – | – | – | IC50 (HDAC4): 150 ± 50 µM; IC50 fold lower for HDAC4 than HDAC3 (HDAC4): at least 2 fold
O=[N+]([O-])c1cc(-c2cccnc2)n[nH]1 [Compound 4135] | – | – | – | – | – | > 500 | IC50 (HDAC4; [3]): 410 ± 240 µM
NS(=O)(=O)c1ccc(N=Nc2ccc(=O)[nH]c2O)cc1 [Compound 134199] | – | – | – | – | ≤ 40% | 25 ± 7 | IC50 (HDAC4; [3]): 33 ± 12 µM; relative percent activity of HDAC3 (activity retained) (HDAC3): ≤ 40%; Relative cell viability ([2]; 100 µM): little potency
